# Experimental data taken from patent EP0690048A1, “Ortho-amino substituted benzoylguanidines, process for their preparation, their use as medicine or diagnostic and medicines containing them” (HOECHST AKTIENGESELLSCHAFT, priority 1994, dated 1996).
# pIC50: −log10 of the molar value. Counter-ions that a name gives are not always drawn.
# Molecular target: T1, Na⁺/H⁺-Exchangers von Kaninchenerythrocyten (Oryctolagus cuniculus, UniProt P23791)
# T1 construct: den Na⁺-Influx in die Erythrocyten via Na⁺/H⁺-Austausch flammenphotometrisch bestimmen zu können; endogenous in cells; host or cells: erythrocytes in blood from the ear arteries of cholesterol-fed White New Zealand rabbits
# T1 sequence (P23791 whole entry): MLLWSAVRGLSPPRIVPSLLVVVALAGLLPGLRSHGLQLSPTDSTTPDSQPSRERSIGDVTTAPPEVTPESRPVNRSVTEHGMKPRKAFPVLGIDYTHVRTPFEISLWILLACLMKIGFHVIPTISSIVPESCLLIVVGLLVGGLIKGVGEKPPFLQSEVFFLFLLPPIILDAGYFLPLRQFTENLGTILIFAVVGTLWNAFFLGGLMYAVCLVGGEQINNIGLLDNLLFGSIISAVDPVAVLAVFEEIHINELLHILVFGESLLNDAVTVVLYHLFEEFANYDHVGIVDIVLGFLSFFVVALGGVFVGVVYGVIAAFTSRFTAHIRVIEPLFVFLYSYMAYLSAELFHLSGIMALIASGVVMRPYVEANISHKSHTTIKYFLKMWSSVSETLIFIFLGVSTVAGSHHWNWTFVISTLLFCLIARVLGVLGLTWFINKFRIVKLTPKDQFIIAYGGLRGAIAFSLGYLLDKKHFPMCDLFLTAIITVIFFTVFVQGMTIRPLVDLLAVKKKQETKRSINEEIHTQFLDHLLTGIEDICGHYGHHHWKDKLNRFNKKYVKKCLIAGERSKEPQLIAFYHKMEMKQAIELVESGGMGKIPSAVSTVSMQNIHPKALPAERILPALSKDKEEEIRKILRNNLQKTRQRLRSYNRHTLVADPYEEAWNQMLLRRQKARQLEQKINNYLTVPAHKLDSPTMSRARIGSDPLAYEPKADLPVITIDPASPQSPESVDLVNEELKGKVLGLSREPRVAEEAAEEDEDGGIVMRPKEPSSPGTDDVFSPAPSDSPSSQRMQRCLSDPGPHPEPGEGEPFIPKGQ
# Experiment: Inhibition of the Na+/H+ exchanger of rabbit erythrocytes (amiloride-sensitive sodium influx, flame photometry)
# Assay type: cell-based, Kaninchen
# Settings: Inhibition des Na⁺/H⁺-Exchangers, hyperosmolares Salz-Sucrose-Medium, pH 7,4, 37°C, read-out: IC₅₀
# Description: Inhibition des Na⁺/H⁺-Exchangers von Kaninchenerythrocyten
# Weiße Neuseeland-Kaninchen (Ivanovas) erhielten eine Standard-Diät mit 2% Cholesterin für sechs Wochen, um den Na⁺/H⁺-Austausch zu aktivieren und so den Na⁺-Influx in die Erythrocyten via Na⁺/H⁺-Austausch flammenphotometrisch bestimmen zu können. Das Blut wurde den Ohrarterien entnommen und durch 25 IE Kalium-Heparin ungerinnbar gemacht. Ein Teil jeder Probe wurde zur Doppelbestimmung des Hämatokrits durch Zentrifugieren benutzt. Aliquots von jeweils 100 µl dienten zur Messung des Na⁺-Ausgangsgehalts der Erythrocyten.
# Um den Amilorid-sensitiven Natrium-Influx zu bestimmen, wurden 100 µl jeder Blutprobe in jeweils 5 ml eines hyperosmolaren Salz-Sucrose-Mediums (mmol/l: 140 NaCl, 3 KCl, 150 Sucrose, 0,1 Ouabain, 20 Tris-hydroxymethylaminomethan) bei pH 7,4 und 37°C inkubiert. Die Erythrozyten wurden danach dreimal mit eiskalter MgCl₂-Ouabain-Lösung (mmol/l: 112 MgCl₂, 0,1 Ouabain) gewaschen und in 2,0 ml destilliertem Wasser hämolysiert. Der intrazelluläre Natriumgehalt wurde flammenphotometrisch bestimmt.
# Der Na⁺-Nettoinflux wurde aus der Differenz zwischen Natrium-Ausgangswerten und dem Natriumgehalt der Erythrocyten nach Inkubation errechnet. Der Amilorid-hemmbare Natrium-Influx ergab sich aus der Differenz des Natriumgehalts der Erythrocyten nach Inkubation mit und ohne Amilorid 3 x 10⁻⁴ mol/l. Auf diese Weise wurde auch bei den erfindungsgemäßen Verbindungen verfahren.
row,Compound,pIC50
1,"NC(N)=NC(=O)c1cc(S(N)(=O)=O)c(Cl)cc1N [Beispiel 1, 2-Amino-4-chloro-5-sulfamoyl-benzoylguanidin-dihydrochlorid]",5.52 to 5.70
2,"NC(N)=NC(=O)c1cc(Cl)ccc1N [Beispiel 9, 2-Amino-5-chloro-benzoylguanidin-dihydrochlorid]",5.70 to 6.00
3,"NC(N)=NC(=O)c1cc(Br)c(Br)cc1N [Beispiel 11, 2-Amino-4,5-dibromo-benzoylguanidin]",7.00
4,"CN(C)c1ccc(Cl)cc1C(=O)N=C(N)N [Beispiel 12, 2-Dimethylamino-5-chloro-benzoylguanidin-dihydrochlorid]",5.70 to 6.00
